Experimental data published in patent US20120052528A1, “METHOD FOR PRODUCING SELECTIVE MEDIUM AND USE THEREOF” (THE UNIVERSITY OF TOKYO, priority 2009, published 2012).

Columns and labels:
[1] = tested on: filamentous bacterial cells; assay: Limited search of carbon sources: colony formation of filamentous bacterial cells from a soil suspension on carbon-source agar medium; conditions: soil suspension smeared on agar medium with the carbon source, 30° C., 5 days; relative value, carbon source-free medium = 100%
Experimental: (§1) Any carbon source, crystal violet (antibiotic) and agar are mixed with basic medium components so as to prepare an agar medium. A soil suspension (100 p1) prepared by suspending of soil for plant cultivation (1 g) in water (100 ml) is smeared (repeatedly 3 times) on the medium, followed by culture at 30° C. for 5 days. The numbers of colonies of filamentous bacterial cells and other bacterial cells that are formed on the medium are counted. Each counted value is represented as a relative value (%) determined based on the number of colonies formed on a “carbon source-free” medium (100%). If the degree of colony formation is less than 30 (for filamentous bacterial cells) and is less than 60 (for bacterial cells), the carbon source is selected as a carbon source having high growth inhibitory effects. The smaller value indicates the smaller number of contaminating germs (filamentous bacteria and other bacteria) that assimilate the carbon source.

other bacterial cells = assay: Limited search of carbon sources: colony formation of other bacterial cells from a soil suspension on carbon-source agar medium; conditions: soil suspension smeared on agar medium with the carbon source, 30° C., 5 days; relative value, carbon source-free medium = 100%
Experimental: as §1

[2] = tested on: contaminating germs in soil; assay: Limited search of carbon sources: assimilation by contaminating germs in soil; assay type: cell-based; conditions: conclusion from Table 5

Row | Molecule | Filamentous bacterial cells Average number of grown colonies ± standard error [1] [%] | Other bacterial cells Average number of grown colonies ± standard error (other bacterial cells) [%] | likelihood of assimilation of the carbon source by contaminating germs in soil [2]
1 | N[C@@H](CC(=O)O)C(=O)O [Aspartic acid] | 11 ± 9 | 32 ± 3 | less likely to be assimilated
2 | OC[C@@H](O)[C@@H](O)[C@H](O)[C@H](O)CO [Mannitol] | 27 ± 17 | 54 ± 4 | less likely to be assimilated
3 | NCC(=O)O [Glycine] | 72 ± 2 | 69 ± 5 | –
4 | O=C(O)C(O)C(O)C(=O)O (stereo not drawn) [Tartaric acid] | 64 ± 6 | 81 ± 3 | –
5 | N[C@@H](CO)C(=O)O [Serine] | 131 ± 16 | 87 ± 3 | –
6 | OC[C@H]1O[C@@](CO)(O[C@H]2O[C@H](CO)[C@@H](O)[C@H](O)[C@H]2O)[C@@H](O)[C@@H]1O [Sucrose] | 211 ± 15 | 71 ± 4 | –
7 | O=C([O-])CCCCC(=O)[O-].[Na+].[Na+] [Sodium adipate] | 36 ± 18 | 122 ± 10 | –
8 | OC[C@H]1O[C@@H](O[C@H]2[C@H](O)[C@@H](O)C(O)O[C@@H]2CO)[C@H](O)[C@@H](O)[C@H]1O (stereo partly drawn) [Lactose] | 128 ± 2 | 77 ± 4 | –
9 | N[C@@H](Cc1ccccc1)C(=O)O [Phenylalanine] | 47 ± 19 | 36 ± 6 | less likely to be assimilated
10 | Polygalacturonic acid | 8 ± 7 | 19 ± 2 | less likely to be assimilated
11 | NCCCC[C@H](N)C(=O)O [Lysine] | 33 ± 14 | 56 ± 5 | less likely to be assimilated
12 | CC[C@H](C)[C@H](N)C(=O)O [Isoleucine] | 28 ± 2 | 44 ± 2 | less likely to be assimilated
13 | OC[C@@H](O)[C@@H](O)[C@@H](O)CO [Ribitol] | 139 ± 11 | 67 ± 2 | –
14 | O=C[C@@H](O)[C@H](O)[C@H](O)CO [Arabinose] | 100 ± 0 | 51 ± 2 | less likely to be assimilated
15 | CC(C)[C@H](N)C(=O)O [Valine] | 19 ± 8 | 38 ± 5 | less likely to be assimilated
16 | N[C@@H](CCC(=O)O)C(=O)O [Glutamic acid] | 83 ± 14 | 66 ± 6 | –

Row | Molecule | Filamentous bacterial cells Average number of grown colonies ± standard error [1] [%] | Other bacterial cells Average number of grown colonies ± standard error (other bacterial cells) [%] | likelihood of assimilation of the carbon source by contaminating germs in soil [2]
17 | O=C(CO)[C@@H](O)[C@H](O)[C@H](O)CO [Fructose] | 100 ± 0 | 84 ± 3 | –
18 | OC[C@H]1O[C@H](O[C@H]2O[C@H](CO)[C@@H](O)[C@H](O)[C@H]2O)[C@H](O)[C@@H](O)[C@@H]1O [Trehalose] | 156 ± 5 | 51 ± 7 | less likely to be assimilated
19 | N[C@@H](Cc1ccc(O)cc1)C(=O)O [Tyrosine] | 81 ± 39 | 55 ± 4 | less likely to be assimilated
20 | O=C(CO)[C@H](O)[C@@H](O)[C@H](O)CO [Sorbose] | 128 ± 2 | 68 ± 3 | –
21 | O[C@H]1[C@H](O)[C@@H](O)[C@H](O)[C@@H](O)[C@H]1O [Inositol] | 0 ± 0 | 57 ± 7 | less likely to be assimilated
22 | CC(C)C[C@H](N)C(=O)O [Leucine] | 67 ± 141 | 42 ± 3 | less likely to be assimilated
23 | O=C[C@H](O)[C@@H](O)[C@H](O[C@@H]1O[C@H](CO)[C@@H](O)[C@H](O)[C@H]1O)[C@H](O)CO [Cellobiose] | 42 ± 18 | 76 ± 5 | –
24 | C[C@@H](O)[C@H](N)C(=O)O [Threonine] | 0 ± 0 | 59 ± 5 | less likely to be assimilated
25 | OC[C@@H](O)[C@@H](O)[C@H](O)[C@@H](O)CO [Sorbitol] | 128 ± 2 | 63 ± 5 | –
26 | N=C(N)NCCC[C@H](N)C(=O)O [Arginine] | 19 ± 8 | 99 ± 3 | less likely to be assimilated
27 | N[C@@H](Cc1c[nH]c2ccccc12)C(=O)O [Tryptophan] | 167 ± 18 | 100 ± 5 | –
28 | O=C(O)[C@@H]1CCCN1 [Proline] | 11 ± 9 | 66 ± 4 | less likely to be assimilated
29 | N[C@@H](Cc1c[nH]cn1)C(=O)O [Histidine] | 203 ± 32 | 62 ± 2 | –
30 | CSCC[C@H](N)C(=O)O [Methionine] | 38 ± 16 | 38 ± 4 | less likely to be assimilated
31 | NC(=O)CC[C@H](N)C(=O)O [Glutamine] | 100 ± 0 | 66 ± 4 | –
